{"source": "patent US9992994B2", "about": "“Agricultural and detergent compositions containing a tertiary amide as adjuvant or as surfactant” (Taminco BVBA, priority 2011, dated 2018)", "key": {"[1]": {"system": "common lambsquarter (Chenopodium album L.; CHEAL)", "assay": "adjuvant for Carfentrazon-ethyl test", "type": "in vivo", "conditions": "Spotlight Plus, 7 DAT", "protocol": "In this test we looked at the performance with Carfentrazone-ethyl (Spotlight Plus from FMC) on common lambsquarter (Chenopodium album L.; CHEAL).\nAfter emergence, the seedlings were thinned to two plants per pot for the efficacy experiments. The common lambsquarters were treated at the four-leaf stage. The fresh weights of the plants were measured 7 days after treatment (7 DAT).\nThe following herbicide was used in the treatment solutions: Carfentrazone-ethyl, Spotlight Plus (FMC) ME formulation, 60 g a.i./L.\nDemineralized water was used as the carrier."}, "[2]": {"conditions": "20° C., cited from earlier work"}, "[3]": {"system": "Black nightshade (Solanum nigrum L.; SOLNI)", "conditions": "Dicamba DMA-salt, Banvel, 16 DAT", "description": "Black nightshade (Solanum nigrum L.; SOLNI) was grown in a growth chamber under 14 h of light, at 18/12 (±0.5) ° C. (day/night) temperature, and in 70/80 (±5)% (day/night) relative humidity. Light was provided by high-pressure mercury lamps and fluorescent tubes to give 250 pmol m^−2 s^−1 at leaf level. The plants were grown in 11-cm-diam plastic pots filled with a mixture of sand and humic potting soil (1:2 by volume). The pots were placed on subirrigation matting, which was wetted daily with a half-strength nutrient solution. After emergence, the seedlings were thinned to one plant per pot for the efficacy experiments. Black nightshade was treated at the four-leaf stage. The fresh weights of the plants were measured 16 days after treatment (16 DAT).\nThe treatment solutions were applied with an air-pressured laboratory track sprayer having 1.2-mm nozzles fitted with a perforated (0.6 mm) whirling pin and delivering 200 L/ha at 303 kPa.\nThe experiment was conducted with four replicates per experiment according to a completely randomized design."}, "[4]": {"system": "Wild oat (Avena fatua L.; AVEFA)", "assay": "adjuvant for Fenoxaprop-P-ethyl test", "type": "in vivo", "conditions": "Puma EW, 21 DAT", "protocol": "In this test the performance with Fenoxaprop-P-ethyl was looked at. Plant material. […] After emergence, the seedlings were thinned to four plants per pot for the efficacy experiments. The plants were treated at the three-leaf stage. The fresh weights of the plants were measured 21 days after treatment (21 DAT). […] The following herbicide was included in the treatment solutions: Fenoxaprop-P-ethyl, Puma EW formulation, 69 g a.i./L. […] Demineralized water was used as the carrier."}, "[5]": {"assay": "Manometric Respirometry Test (biodegradability)", "conditions": "after 28 days", "protocol": "Biodegradability test of N,N-bis(3-(dimethylamino) propyl)-octanamide was tested in a Manometric Respirometry Test according to Commission Regulation 440/2008/EC, Method C.4-D of May 30, 2008: Manometric Respirometry Test (EEC Publication N° L142/496, May 2008).\nThe percentage of biodegradation was 65% after 28 days."}, "[6]": {"assay": "solubility / miscibility in water and dodecane", "type": "physicochemical", "source_text": "R1 is preferably an aliphatic group, in particular a fatty chain, having 5-13 carbon atoms (i.e. a C5 to C13 carbon chain), preferably 5-9 carbon atoms. This embodiment is especially advantageous when the amide is a diamine of formula (I). […] This is not only the case when one or more of the R2, R3, R4 and R5 groups are ethanol and/or tertiary propanol groups, but also when these groups are alkyl groups, in particular C1 to C3 alkyl groups. The R2, R3, R4 and R5 groups are preferably methyl groups. The corresponding DMAPA amides, on the other hand, show only poor water solubility.\nFurthermore, they can be used efficiently in highly concentrated (so-called ‘high load’) agrochemical compositions to prevent phase separation to occur. The amphiphilic behaviour of the bisDMAPA amides is further illustrated in example 4."}, "[7]": {"system": "Black nightshade (SOLNI)", "assay": "adjuvant for glyphosate test on black nightshade", "type": "in vivo", "conditions": "where named, 0.25% w/v, 14 DAT", "protocol": "(§1) Wheat plants were used as a model for difficult to wet grasses and black nightshade was used as a model for a plant with an easy to wet but difficult to permeate leaf surface.\n(§2) After emergence, the wheat seedlings were thinned to six plants per pot for the efficacy experiments. Black nightshade seedlings were thinned to one plant per pot. Black nightshade and wheat were treated at the four- and the three-leaf stage, respectively. The fresh weights of the plants were measured 14 days after treatment (14 DAT; black nightshade) or 21 days after treatment (21 DAT; wheat).\n(§3) Demineralized water was used as the carrier. […] Based on previous work, these rates were 20.3 g ae/ha (equivalent to 0.6 mM) on black nightshade and 77.8 g ae/ha (equivalent to 2.3 mM at 200 L/ha) on wheat (ae=acid equivalent).\n(§4) The fresh weight of the untreated plant was taken as a reference (100%). […] An industrial standard was also included in the test series."}, "[8]": {"system": "winter wheat (cv. Ilias)", "assay": "adjuvant for glyphosate test on wheat", "type": "in vivo", "conditions": "where named, 0.25% w/v, 21 DAT", "protocol": "as §1, §2, §3, §4"}, "[9]": {"conditions": "sub-optimal rate + N,N-bis(3-(dimethylamino)propyl)octanamide 0.25% (w/v)"}, "[10]": {"conditions": "sub-optimal rate, no adjuvant, average of four replicates"}}, "note": "Like-named read-outs stand apart in the source and are kept apart here.", "data": [{"compound": "CCOC(=O)C(Cl)Cc1cc(-n2nc(C)n(C(F)F)c2=O)c(F)cc1Cl", "note": "(centres unmarked) [Carfentrazone-ethyl]", "values": [{"measurement": "Fresh Weight CHEAL (g) Herbicide + Adjuvant", "setting": "[1]; [9]", "result": 0.7, "unit": "g"}, {"measurement": "Fresh weight CHEAL (g) Only herbicide", "setting": "[1]; [10]", "result": 4.9, "unit": "g"}, {"measurement": "log Kow", "setting": "[2]; no pH given", "result": 3.4}]}, {"compound": "COc1c(Cl)ccc(Cl)c1C(=O)O", "note": "[Dicamba]", "values": [{"measurement": "log Kow", "setting": "[2]; at pH 7", "result": "−1.9"}, {"measurement": "Fresh Weight SOLNI (g) Herbicide + Adjuvant", "setting": "[3]; [9]", "result": 6.7, "unit": "g"}, {"measurement": "Fresh weight SOLNI (g) Only herbicide", "setting": "[3]; [10]", "result": 10.8, "unit": "g"}]}, {"compound": "CCOC(=O)[C@@H](C)Oc1ccc(Oc2nc3ccc(Cl)cc3o2)cc1", "note": "[Fenoxaprop-P-ethyl]", "values": [{"measurement": "Fresh Weight Wild Oat (g) Herbicide + Compound", "setting": "[4]; [9]", "result": 1.4, "unit": "g"}, {"measurement": "Fresh weight Wild Oat (g) Only herbicide", "setting": "[4]; [10]", "result": 16.4, "unit": "g"}, {"measurement": "log Kow", "setting": "[2]; no pH given", "result": 4.3}]}, {"compound": "CCCCCCCC(=O)N(CCCN(C)C)CCCN(C)C", "note": "[N,N-bis(3-(dimethylamino)propyl)octanamide]", "values": [{"measurement": "biodegradability classification", "setting": "[5]", "result": "Readily Biodegradable"}, {"measurement": "percentage of biodegradation", "setting": "[5]", "result": 65, "unit": "%"}, {"measurement": "solubility in dodecane", "setting": "[6]", "result": "completely soluble"}, {"measurement": "solubility in water", "setting": "[6]", "result": "completely soluble"}, {"measurement": "Fresh Weight SOLNI", "setting": "[7]; IPA-glyphosate 0.6 mM (20.3 g ae/ha at 200 L/ha)", "result": 1.6, "unit": "g"}, {"measurement": "Relative weight SOLNI (%)", "setting": "[7]; untreated plant = 100%, IPA-glyphosate 0.6 mM", "result": 14.1, "unit": "%"}, {"measurement": "Fresh Weight WHEAT", "setting": "[8]; IPA-glyphosate 2.3 mM (77.8 g ae/ha at 200 L/ha)", "result": 2.3, "unit": "g"}, {"measurement": "Relative weight WHEAT (%)", "setting": "[8]; untreated plant = 100%, IPA-glyphosate 2.3 mM", "result": 13.0, "unit": "%"}]}]}
